# Measurements: ChEMBL document CHEMBL1152582, “Discovery of trans-N-[1-(2-fluorophenyl)-3-pyrazolyl]-3-oxospiro[6-azaisobenzofuran-1(3H),1'-cyclohexane]-4'-carboxamide, a potent and orally active neuropeptide Y Y5 receptor antagonist” (Bioorg Med Chem, 2009)
# pIC50: −log10 of the molar value. Active and inactive are the calls of the source. The rule behind the calls is not given here.
# Assays:
# [1] = in vitro; details: rat, hepatocytes
# Description: Clearance in rat hepatocytes
# [2] = test system: CYP3A; experiment: Inhibition of CYP3A at 10 uM; assay type: ADME
# [3] = biological target: T1, Neuropeptide Y receptor type 5 (Homo sapiens, UniProt Q15761)
# T1 sequence (Q15761 whole entry): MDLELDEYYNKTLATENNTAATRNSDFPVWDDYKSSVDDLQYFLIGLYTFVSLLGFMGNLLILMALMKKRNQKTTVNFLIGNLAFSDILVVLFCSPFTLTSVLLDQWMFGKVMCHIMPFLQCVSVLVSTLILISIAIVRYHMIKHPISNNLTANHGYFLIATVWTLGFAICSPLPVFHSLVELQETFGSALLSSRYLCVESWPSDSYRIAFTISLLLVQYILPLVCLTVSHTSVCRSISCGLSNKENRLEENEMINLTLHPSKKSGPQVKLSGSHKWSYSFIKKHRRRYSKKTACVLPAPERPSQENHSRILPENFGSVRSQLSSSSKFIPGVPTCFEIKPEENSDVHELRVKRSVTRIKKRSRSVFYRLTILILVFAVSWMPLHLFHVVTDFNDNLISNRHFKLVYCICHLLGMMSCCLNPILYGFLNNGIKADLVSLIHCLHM
# Description: Displacement of [125I]PYY from human recombinant Y5 receptor
# [4] = in vivo; details: rat, CSF/plasma, po, 10 mg/kg
# Description: Ratio of drug level in CSF to plasma in rat at 10 mg/kg, po after 2 hrs
# [5] = physchem; details: buffer, pH 7.4
# Description: Lipophilicity, log D at pH 7.4
# [6] = in vivo; details: rat, plasma, po, 10 mg/kg
# Description: Plasma concentration in rat at 10 mg/kg, po after 2 hrs
# [7] = in vivo; details: rat, CSF, po, 10 mg/kg
# Description: Drug level in rat CSF at 10 mg/kg, po after 2 hrs
# [8] = test system: Brain; details: rat, in vivo, po, 10 mg/kg, 2 h
# Description: Drug level in rat brain at 10 mg/kg, po after 2 hrs
# [9] = biological target: T2, Neuropeptide Y receptor type 5 (Rattus norvegicus, UniProt Q63634)
# T2 sequence (Q63634 whole entry): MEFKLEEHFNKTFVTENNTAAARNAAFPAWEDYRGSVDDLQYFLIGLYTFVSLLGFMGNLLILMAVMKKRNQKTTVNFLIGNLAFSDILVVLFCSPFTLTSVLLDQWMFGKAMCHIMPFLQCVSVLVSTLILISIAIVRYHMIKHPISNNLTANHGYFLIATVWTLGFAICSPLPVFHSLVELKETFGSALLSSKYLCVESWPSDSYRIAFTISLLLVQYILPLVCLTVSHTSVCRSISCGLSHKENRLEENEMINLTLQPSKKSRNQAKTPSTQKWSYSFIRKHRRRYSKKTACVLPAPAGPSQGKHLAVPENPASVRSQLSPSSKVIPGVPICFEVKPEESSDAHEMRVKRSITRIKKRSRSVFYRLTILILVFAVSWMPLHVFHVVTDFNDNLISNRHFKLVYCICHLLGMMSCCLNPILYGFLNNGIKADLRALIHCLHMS
# Description: Inhibition of rat Y5 receptor
# [10] = test system: Rattus norvegicus; experiment: Inhibition of [D-Trp34]NPY-induced food intake in Sprague-Dawley rat assessed as minimum effective dose treated po 2 hrs before [D-Trp34]NPY challenge; assay type: functional; details: read-out: MED
# [11] = Ratio of drug level in brain to plasma in rat at 10 mg/kg, po after 2 hrs; assay type: ADME, organism-based; parameters: dose 10 mg/kg, route oral; details: read-out: BPR
# [12] = species: Mus musculus; experiment: Ex vivo Y5 receptor occupancy in mouse brain at plasma level of 100 to 200 ng/ml; assay type: functional, organism-based
# [13] = species: Mus musculus; experiment: Ex vivo Y5 receptor occupancy in mouse brain at plasma level of 10 to 20 ng/ml; assay type: functional, organism-based
# [14] = test system: Rattus norvegicus; experiment: Inhibition of [D-Trp34]NPY-induced food intake in Sprague-Dawley rat at 0.3 mg/kg, po treated 2 hrs before [D-Trp34]NPY challenge; assay type: functional
# [15] = test system: Rattus norvegicus; experiment: Inhibition of [D-Trp34]NPY-induced food intake in Sprague-Dawley rat at 10 mg/kg, po treated 2 hrs before [D-Trp34]NPY challenge; assay type: functional
# [16] = test system: Rattus norvegicus; experiment: Inhibition of [D-Trp34]NPY-induced food intake in Sprague-Dawley rat at 1 mg/kg, po treated 2 hrs before [D-Trp34]NPY challenge; assay type: functional
# [17] = test system: Rattus norvegicus; experiment: Inhibition of NPY-induced food intake in Sprague-Dawley rat at 10 mg/kg, po treated 2 hrs before [D-Trp34]NPY challenge; assay type: functional
# [18] = test system: Rattus norvegicus; experiment: Inhibition of [D-Trp34]NPY-induced food intake in Sprague-Dawley rat at 3 mg/kg, po treated 2 hrs before [D-Trp34]NPY challenge; assay type: functional
Compound,CLhep predicted [1],pIC50 [3],logD [5],concentration at 2 h [6],concentration at 2 h [7],Drug uptake [8],also measured
O=C1O[C@]2(CC[C@H](C(=O)Nc3cc(-c4ccccc4)n[nH]3)CC2)c2ccncc21,9 mL/min/kg,8.54,,,,,inhibition at 10 µM [2]: > 50%
O=C1O[C@]2(CC[C@H](C(=O)Nc3ncc(-c4ccccc4)cn3)CC2)c2ccncc21,42 mL/min/kg,,,,,,inhibition at 10 µM [2]: > 50%
O=C1O[C@]2(CC[C@H](C(=O)Nc3cnn(-c4ccccc4)n3)CC2)c2cnccc21,21 mL/min/kg,9.05,3.4,680 nM,42 nM,1.33 nmol/g,Kp at 2 h [4]: 0.032
O=C1O[C@]2(CC[C@H](C(=O)Nc3ccn(-c4ccccc4)n3)CC2)c2cnccc21,20 mL/min/kg,8.64,3.1,2940 nM,276 nM,3.13 nmol/g,Kp at 2 h [4]: 0.088; pIC50 [9]: 8.66; minimal effective dose [10]: > 10 mg/kg; Kp at 2 h [11]: 1.06
O=C1O[C@]2(CC[C@H](C(=O)Nc3cc(-c4ccccc4)[nH]n3)CC2)c2cccnc21,2 mL/min/kg,8.27,,,,,
O=C1O[C@]2(CC[C@H](C(=O)Nc3ncc(-c4ccccc4)cn3)CC2)c2ncccc21,49 mL/min/kg,,,,,,
O=C1O[C@]2(CC[C@H](C(=O)Nc3ncc(-c4ccccc4)cn3)CC2)c2cnccc21,39 mL/min/kg,,,,,,
O=C1OC2(CCC(C(=O)Nc3cnc(-c4ccccc4)cn3)CC2)c2ccccc21 (configuration not stated),,,,,,,Activity [12]: Active; pIC50 [9]: 8.60; minimal effective dose [10]: > 10 mg/kg
O=C1O[C@]2(CC[C@H](C(=O)Nc3ccn(-c4ccccc4F)n3)CC2)c2cnccc21 [MK-0557],9 mL/min/kg,,3.2,1590 nM,152 nM,2.15 nmol/g,Activity [13]: Active; inhibition in vivo at 0.3 mg/kg [14]: 27%; inhibition in vivo at 10 mg/kg [15]: 83%; inhibition in vivo at 1 mg/kg [16]: 43%; pIC50 [9]: 8.68; minimal effective dose [10]: 3 mg/kg; inhibition in vivo at 10 mg/kg [17]: 22%; inhibition in vivo at 3 mg/kg [18]: 61%
O=C1O[C@]2(CC[C@H](C(=O)Nc3cnn(-c4ccccc4)c3)CC2)c2cccnc21,1 mL/min/kg,8.89,2.9,6680 nM,91 nM,0.5 nmol/g,Kp at 2 h [4]: 0.18; pIC50 [9]: 8.33; minimal effective dose [10]: 10 mg/kg
O=C1O[C@]2(CC[C@H](C(=O)Nc3cnc(-c4ccccc4)cn3)CC2)c2cccnc21,18 mL/min/kg,8.38,3.1,3750 nM,174 nM,2.5 nmol/g,
O=C1O[C@]2(CC[C@H](C(=O)Nc3cnc(-c4ccccc4)cn3)CC2)c2cnccc21,36 mL/min/kg,8.66,3.39,,,,
O=C1O[C@]2(CC[C@H](C(=O)Nc3cnc(-c4ccccc4)cn3)CC2)c2ccncc21,42 mL/min/kg,8.62,,,,,inhibition at 10 µM [2]: > 50%
O=C1O[C@]2(CC[C@H](C(=O)Nc3ccn(-c4ccccc4)n3)CC2)c2cccnc21,4 mL/min/kg,8.36,2.8,6460 nM,416 nM,2.79 nmol/g,Kp at 2 h [4]: 0.15; pIC50 [9]: 8.77; minimal effective dose [10]: 3 mg/kg
O=C1O[C@]2(CC[C@H](C(=O)Nc3ncc(-c4ccccc4)cn3)CC2)c2cccnc21,49 mL/min/kg,,,,,,
O=C1O[C@]2(CC[C@H](C(=O)Nc3cc(-c4ccccc4)on3)CC2)c2ncccc21,36 mL/min/kg,8.62,3.7,,,,
O=C1O[C@]2(CC[C@H](C(=O)Nc3cnc(-c4ccccc4)cn3)CC2)c2ncccc21,39 mL/min/kg,8.41,,,,,
O=C1O[C@]2(CC[C@H](C(=O)Nc3cnn(-c4ccccc4)c3)CC2)c2cnccc21,< 1 mL/min/kg,8.66,,1520 nM,45 nM,0.39 nmol/g,Kp at 2 h [4]: 0.115
O=C1O[C@]2(CC[C@H](C(=O)Nc3ccn(-c4cccc(F)c4)n3)CC2)c2cnccc21,10 mL/min/kg,8.70,3.4,1090 nM,77 nM,1.36 nmol/g,
O=C1O[C@]2(CC[C@H](C(=O)Nc3cc(-c4ccccc4)[nH]n3)CC2)c2ncccc21,,7.59,,,,,
O=C1O[C@]2(CC[C@H](C(=O)Nc3ccn(-c4ccc(F)cc4)n3)CC2)c2cnccc21,7 mL/min/kg,9.04,3.2,890 nM,81 nM,1.24 nmol/g,pIC50 [9]: 8.68; minimal effective dose [10]: 1 mg/kg
O=C1O[C@]2(CC[C@H](C(=O)Nc3cnc(-c4ccccc4)cn3)CC2)c2ccccc21,35 mL/min/kg,8.82,> 4,,,,
O=C1O[C@]2(CC[C@H](C(=O)Nc3cc(-c4ccccc4)[nH]n3)CC2)c2cnccc21,3 mL/min/kg,8.57,3.16,6100 nM,59 nM,0.5 nmol/g,
O=C1O[C@]2(CC[C@H](C(=O)Nc3csc(-c4ccccc4)n3)CC2)c2cnccc21,12 mL/min/kg,8.92,,190 nM,,,
O=C1O[C@]2(CC[C@H](C(=O)Nc3ccc(-c4ccccc4)cn3)CC2)c2cnccc21,14 mL/min/kg,8.68,,20 nM,,,
O=C1O[C@]2(CC[C@H](C(=O)Nc3cc(-c4ccccc4)on3)CC2)c2cnccc21,6 mL/min/kg,8.68,,290 nM,,,
